Earlier results as cited in patent US10751019B2, “Determining a brain condition using early time frame PET image analysis” (ADM DIAGNOSTICS, LLC, priority 2015, dated 2020).

Settings: PET tracer in brain, time after tracer injection; varies with tracer, region of accumulation and target load

Row | SMILES | time to reach equilibrium
1 | [11CH3]Nc1ccc(-c2nc3ccc(O)cc3s2)cc1 [11C-PiB] | about 45 minutes
2 | CNc1ccc(/C=C/c2ccc(OCCOCCOCCF)nc2)cc1 [florbetapir] | 40 to 45 min
3 | CNc1ccc(-c2nc3ccc(O)cc3s2)cc1F [flutemetamol] | about 80 minutes
